Measured values reported in PubChem BioAssay AID1963429 (Molecular Pharmacology Branch, DTP, NCI, 2024).
Several values for one entry are separate records, joined by “and”; a condition that tells them apart may be missing. Equal entries are not always repeated. Values belong to the compound of their own block, whether it stands above or below them.

System: 126254-015-R-J1-PDC complex spheroid growth, % test/control
Experiment: Anticancer human tumor 126254-015-R-J1-PDC patient-derived soft tissue sarcoma cell line growth inhibition [Asc]
Details: for viability, T/C: stronger effect = lower value
How it was run: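 Complex spheroids combining tumor cells with HUVEC endothelial cells and human MSCs, at 37 degrees C, 5% CO2; agents tested alone or combined, half-log dilutions from at or near clinical Cmax, or 10 microM if Cmax unknown.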
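Note: spheroids exposed to compound for seven days.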
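Throughout, for viability, T/C: 100% = DMSO vehicle control wells.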

IC50 (curve of first compound, second compound 0.1 µM): > 100 nM
IC50 (curve of first compound, second compound 0.316 µM): > 100 nM
IC50 (curve of first compound, second compound 1 µM): > 100 nM
IC50 (curve of first compound, second compound 3.16 µM): > 100 nM
IC50 (curve of first compound, second compound 10 µM): 99.3 nM
Structure (SMILES): Cn1ncnc1[C@H]1c2n[nH]c(=O)c3cc(F)cc(c23)N[C@@H]1c1ccc(F)cc1 + Cc1c(S(C)(=O)=O)c(-c2cc(F)cc(N3CCN(c4ccc(NS(=O)(=O)c5ccc(NC(CCN6CCC(C(=O)OCCCP(=O)(O)O)CC6)CSc6ccccc6)c(S(=O)(=O)C(F)(F)F)c5)cc4)CC3)c2)c(-c2ccc(Cl)cc2)n1C(C)C
viability, T/C (second compound 0.1 µM, first compound 0.000316 µM): 90.6%
viability, T/C (second compound 0.1 µM, first compound 0.001 µM): 89.9%
viability, T/C (second compound 0.1 µM, first compound 0.00316 µM): 82.1%
viability, T/C (second compound 0.1 µM, first compound 0.01 µM): 73.9%
viability, T/C (second compound 0.1 µM, first compound 0.0316 µM): 76.9%
viability, T/C (second compound 0.1 µM, first compound 0.1 µM): 65.2%
viability, T/C (second compound 0.316 µM, first compound 0.000316 µM): 87.7%
viability, T/C (second compound 0.316 µM, first compound 0.001 µM): 79%
viability, T/C (second compound 0.316 µM, first compound 0.00316 µM): 71.6%
viability, T/C (second compound 0.316 µM, first compound 0.01 µM): 69.2%
viability, T/C (second compound 0.316 µM, first compound 0.0316 µM): 69.7%
viability, T/C (second compound 0.316 µM, first compound 0.1 µM): 58.5%
viability, T/C (second compound 1 µM, first compound 0.000316 µM): 79%
viability, T/C (second compound 1 µM, first compound 0.001 µM): 85.1%
viability, T/C (second compound 1 µM, first compound 0.00316 µM): 78.4%
viability, T/C (second compound 1 µM, first compound 0.01 µM): 63.9%
viability, T/C (second compound 1 µM, first compound 0.0316 µM): 64%
viability, T/C (second compound 1 µM, first compound 0.1 µM): 61.6%
viability, T/C (second compound 3.16 µM, first compound 0.000316 µM): 83.4%
viability, T/C (second compound 3.16 µM, first compound 0.001 µM): 68%
viability, T/C (second compound 3.16 µM, first compound 0.00316 µM): 70.3%
viability, T/C (second compound 3.16 µM, first compound 0.01 µM): 61%
viability, T/C (second compound 3.16 µM, first compound 0.0316 µM): 57.5%
viability, T/C (second compound 3.16 µM, first compound 0.1 µM): 55%
viability, T/C (second compound 10 µM, first compound 0.000316 µM): 82%
viability, T/C (second compound 10 µM, first compound 0.001 µM): 72%
viability, T/C (second compound 10 µM, first compound 0.00316 µM): 77.7%
viability, T/C (second compound 10 µM, first compound 0.01 µM): 68.7%
viability, T/C (second compound 10 µM, first compound 0.0316 µM): 55.2%
viability, T/C (second compound 10 µM, first compound 0.1 µM): 50%

IC50 (curve of compound): 53.6 nM and 52.5 nM and 76 nM
Structure (SMILES): COc1c(OCCCN2CCOCC2)ccc2c3n(c(=NC(=O)c4cnc(N)nc4)nc12)CCN3
viability, T/C (compound 0.00316 µM): 98.8% and 93% and 88.2%
viability, T/C (compound 0.01 µM): 87.4% and 90.6% and 95.3%
viability, T/C (compound 0.0316 µM): 60.5% and 65.2% and 66.9%
viability, T/C (compound 0.1 µM): 37.3% and 29.9% and 45.1%
viability, T/C (compound 0.316 µM): 16.1% and 17.7% and 24.1%
viability, T/C (compound 1 µM): 9.83% and 12.4% and 16.3%
